Assay results published in publication PMC3060972 (Peptides, 2011).

How the values were obtained:
E. coli [1] = assay: Membrane permeability by propidium iodide; assay type: cell-based; settings: qualitative comparison with wild type BF2; PI uptake in E. coli
E. coli [2] = assay: Radial diffusion assay; assay type: cell-based; settings: qualitative comparison with wild type BF2

Sequence	MEMBRANE PERMEABILIZATION compared to wild type (E. coli [1])	ANTIMICROBIAL ACTIVITY compared to wild type (E. coli [2])
TRSSRAGLQFAPGRVHRLLRK [P11A/V12P]	SIMILAR	LOWER
TRSSRAGLQFAVGRPHRLLRK [P11A/V15P]	SIMILAR	LOWER
TRSSRAGLQFAVGRVHRLLRK [P11A]	HIGHER	LOWER
TRSSRAPLQFAVGRVHRLLRK [P11A/G7P]	HIGHER	SIMILAR
